{"source": "ChEMBL document CHEMBL3881522", "about": "“Interaction inhibitors of TCF-4 with Beta-catenin” (2004)", "note": "Activity calls are given as the source filed them. The rule behind the calls is not given here."}
{"target": "TCF4/beta-catenin (Homo sapiens) (UniProt P35222+Q9NQB0)", "test": "Inhibition of TCF-4 ( 1 to 56 residues) (unknown origin) binding to beta-catenin/armadillo (unknown origin) at 50 uM by ITC assay", "type": "protein-complex assay"}
{"compound": "Cc1ccc(NC(=O)c2c(O)cc(-c3ccccc3)oc2=O)o1", "inhibition": "Active"}
{"compound": "Cc1ccc(/C=N/n2c(=O)n(-c3ccncc3)c(=O)c3ccccc32)o1", "inhibition": "Active"}
{"compound": "COc1cccc2c1CCc1sc(N(CCOC(C)CCc3ccccc3)C(C)=O)nc1-2", "note": "(centres undefined)", "inhibition": "Active"}
{"compound": "Cc1ccc(/C(=N\\NC(=O)c2ccccc2Oc2ccccc2)c2ccccn2)o1", "inhibition": "Active"}
{"compound": "Nc1n[nH]c(CC2CN(c3ccc(N4CCNCC4)c(Cl)c3)C(=O)N2)n1", "note": "(centres undefined)", "inhibition": "Active"}
{"compound": "O=C(c1ccncc1)N1CCC(=Cc2ccccc2OCc2ccc(Br)o2)CC1", "inhibition": "Active"}
{"compound": "Cc1cc(CNC(=O)/C=C2\\C(=O)N(c3ccncc3)c3ccccc32)on1", "inhibition": "Active"}
{"compound": "O=C(Nc1nnc(Br)o1)c1c(O)cc(-c2ccccc2)oc1=O", "inhibition": "Active"}
{"compound": "Cc1ccc(/C=N/N=C2\\C(=O)N(c3ccncc3)c3ccccc32)o1", "inhibition": "Active"}
{"compound": "Cc1ccc(/C(=N\\NC(=O)c2ccccc2Nc2ccccc2)c2ccccc2)o1", "inhibition": "Active"}
{"compound": "Cc1ccc(/C=N/Nc2cc(C(=O)NCCc3ccccc3)cc3c2CCc2ccncc2-3)o1", "inhibition": "Active"}
{"compound": "C/C(=N\\NC(=O)OCc1ccccc1)c1cc(C)cs1", "inhibition": "Active"}
{"compound": "O=C(c1ccc(Br)o1)N1CCN(C(c2ccccc2)c2ccccc2)CC1", "inhibition": "Active"}
{"compound": "O=S(=O)(c1ccc(OCc2cnc(Cl)s2)cc1)N1CCOCC1", "inhibition": "Active"}
{"compound": "Cc1ccc(CCc2ccc3[nH]c(-c4ccco4)cc3c2)o1", "inhibition": "Active"}
{"compound": "O=C(CCNS(=O)(=O)c1ccccc1)NNS(=O)(=O)Cc1ccc(Cl)s1", "inhibition": "Active"}
{"compound": "Cc1cc(/C(=C\\c2ccccc2)c2ccc(OCCN3CCCC3)cc2)on1", "inhibition": "Active"}
{"compound": "Cc1ccc(COc2ccccc2C=C2CCN(S(=O)(=O)c3ccncc3)CC2)o1", "inhibition": "Active"}
{"compound": "O=c1oc(-c2ccccc2)cc(O)c1/C=C/c1nnc(Br)o1", "inhibition": "Active"}
{"compound": "Cc1ccc(/C=C/c2ccc3[nH]c(-c4ccco4)cc3c2)o1", "inhibition": "Active"}
{"compound": "Oc1nnc(CCCc2ccc(Oc3ccccc3)cc2)o1", "inhibition": "Active"}
{"compound": "Cc1cc(NC(=O)c2ccc(Oc3ccccc3)cc2)on1", "inhibition": "Active"}
{"compound": "CC(=O)N(CCCC(C)c1ccccc1)c1nc2c(s1)CCc1ccccc1-2", "note": "(centres undefined)", "inhibition": "Active"}
{"compound": "Cc1ccc(-c2ccc3ccc(Oc4ccncc4)cc3c2)o1", "inhibition": "Active"}
{"compound": "Cc1cc(NC(=O)NC(=O)c2nnc(-c3ccccc3)o2)no1", "inhibition": "Active"}
{"compound": "Cc1ccc(CCc2ccc3[nH]c(-c4cccs4)cc3c2)o1", "inhibition": "Active"}
{"compound": "Cc1ccc(Nc2cccc(-c3ccccc3Oc3ccccc3)c2)o1", "inhibition": "Active"}
{"compound": "Cc1cc(NC(=O)c2c(O)cc(Oc3ccccc3)oc2=O)on1", "inhibition": "Active"}
{"compound": "CS(=O)(=O)N(CCCCOc1ccccc1)c1nc2c(s1)CCc1ccccc1-2", "inhibition": "Active"}
{"compound": "Cc1ccc(/C=N/NC(=O)c2ccccc2Oc2ccccc2)o1", "inhibition": "Active"}
{"compound": "CS(=O)(=O)N(CCOCCc1ccccc1)c1nc2c([nH]1)CCc1ccccc1-2", "inhibition": "Active"}
{"compound": "Cc1cc(-c2onc(C)c2COC(=O)Nc2ccccc2)no1", "inhibition": "Active"}
{"compound": "Nc1n[nH]c(CC2CN(c3ccc(N4CCOCC4)c(F)c3)C(=O)O2)n1", "note": "(centres undefined)", "inhibition": "Active"}
{"compound": "Cc1nnc(-c2sc3nc(-c4ccc(Cl)cc4)nn3c2C)o1", "inhibition": "Active"}
{"compound": "C/C(=N\\NC(=O)COc1ccccc1)c1ccc(C)s1", "inhibition": "Active"}
{"compound": "Cc1ccc(/C=N/c2cccc3c(-c4ccncc4)ccnc23)o1", "inhibition": "Active"}
{"compound": "Cc1ccc(CNC(=O)/C=C2\\C(=O)N(c3ccncc3)c3ccccc32)o1", "inhibition": "Active"}
{"compound": "Cc1ccc(C(=O)N2CCN(C(c3ccccc3)c3ccccc3)CC2)s1", "inhibition": "Active"}
{"compound": "Cc1ccc(/C(=N\\NC(=O)c2ccccc2Oc2ccccc2)c2ccccc2)s1", "inhibition": "Active"}
